Test results reported in ChEMBL document CHEMBL1201862, “PubChem BioAssay data set” (2004).
The source made the active and inactive calls.

What was measured:
[1] = NIH-3T3 fibroblast cytotoxicity, dose response, cytotoxicity control, cell-based, fluorescence, Alamar Blue, secondary assay (AID 2327); assay type: functional;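 note: NIH-3T3 mouse fibroblasts cultured with fluconazole at 8 µg/mL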
[2] = C. albicans growth with fluconazole, confirmation, fluorescence, retest (AID 2467); assay type: functional, cell-based
Exodeoxyribonuclease V = target: T1, Exodeoxyribonuclease V (Escherichia coli (strain K12), UniProt P04993+P07648+P08394); test: E. coli RecBCD inhibitors, dose response, counter-screen for AddAB inhibitor project, absorbance, V66 E. coli, mutant T4 phage (AID 492957); assay type: functional, cell-based, Escherichia coli str. K-12 substr. MG1655
T1 sequence (P04993 whole entry): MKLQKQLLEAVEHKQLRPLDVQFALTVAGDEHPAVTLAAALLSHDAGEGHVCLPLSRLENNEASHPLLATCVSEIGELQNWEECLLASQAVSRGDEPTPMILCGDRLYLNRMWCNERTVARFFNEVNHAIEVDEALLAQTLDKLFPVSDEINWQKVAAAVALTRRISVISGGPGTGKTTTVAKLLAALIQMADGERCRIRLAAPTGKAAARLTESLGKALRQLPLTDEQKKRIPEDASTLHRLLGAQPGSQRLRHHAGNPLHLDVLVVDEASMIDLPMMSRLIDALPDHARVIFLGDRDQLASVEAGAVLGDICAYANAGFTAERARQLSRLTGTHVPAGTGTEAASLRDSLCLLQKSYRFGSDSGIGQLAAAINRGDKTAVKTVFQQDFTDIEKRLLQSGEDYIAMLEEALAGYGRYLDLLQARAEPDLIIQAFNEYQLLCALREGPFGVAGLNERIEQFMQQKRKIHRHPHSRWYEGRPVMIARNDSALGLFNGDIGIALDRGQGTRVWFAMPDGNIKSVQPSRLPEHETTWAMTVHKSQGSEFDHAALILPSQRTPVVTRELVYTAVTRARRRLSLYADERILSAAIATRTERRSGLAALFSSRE
T1 sequence (P07648 whole entry): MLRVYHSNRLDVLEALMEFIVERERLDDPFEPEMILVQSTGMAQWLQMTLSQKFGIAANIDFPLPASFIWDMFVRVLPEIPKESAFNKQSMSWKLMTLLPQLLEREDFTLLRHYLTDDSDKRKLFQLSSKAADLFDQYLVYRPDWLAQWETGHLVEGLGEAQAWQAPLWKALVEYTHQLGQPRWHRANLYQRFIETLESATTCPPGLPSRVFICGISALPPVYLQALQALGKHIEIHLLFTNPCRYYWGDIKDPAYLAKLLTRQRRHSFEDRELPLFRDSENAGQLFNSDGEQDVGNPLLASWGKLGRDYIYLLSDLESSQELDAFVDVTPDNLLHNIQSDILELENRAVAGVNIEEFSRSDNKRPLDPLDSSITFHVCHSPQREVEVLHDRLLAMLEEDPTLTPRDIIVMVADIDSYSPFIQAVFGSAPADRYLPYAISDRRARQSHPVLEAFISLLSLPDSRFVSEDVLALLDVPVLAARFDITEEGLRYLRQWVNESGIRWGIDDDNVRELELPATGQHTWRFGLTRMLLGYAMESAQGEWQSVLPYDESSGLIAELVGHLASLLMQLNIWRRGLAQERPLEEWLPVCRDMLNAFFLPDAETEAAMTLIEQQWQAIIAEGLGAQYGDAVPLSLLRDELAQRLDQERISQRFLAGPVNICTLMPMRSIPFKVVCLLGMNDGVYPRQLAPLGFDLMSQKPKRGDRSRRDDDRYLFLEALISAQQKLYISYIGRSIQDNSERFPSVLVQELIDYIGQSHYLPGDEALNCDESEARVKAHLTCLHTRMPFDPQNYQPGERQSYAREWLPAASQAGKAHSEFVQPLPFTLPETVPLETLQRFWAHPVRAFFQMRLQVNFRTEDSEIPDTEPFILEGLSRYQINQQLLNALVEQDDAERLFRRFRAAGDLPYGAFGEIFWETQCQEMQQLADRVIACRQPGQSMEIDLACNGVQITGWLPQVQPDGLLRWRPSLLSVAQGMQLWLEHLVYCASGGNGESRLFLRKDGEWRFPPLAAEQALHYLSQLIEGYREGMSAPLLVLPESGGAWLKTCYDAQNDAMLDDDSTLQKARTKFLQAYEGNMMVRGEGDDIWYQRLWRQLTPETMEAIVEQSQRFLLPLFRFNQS
T1 sequence (P08394 whole entry): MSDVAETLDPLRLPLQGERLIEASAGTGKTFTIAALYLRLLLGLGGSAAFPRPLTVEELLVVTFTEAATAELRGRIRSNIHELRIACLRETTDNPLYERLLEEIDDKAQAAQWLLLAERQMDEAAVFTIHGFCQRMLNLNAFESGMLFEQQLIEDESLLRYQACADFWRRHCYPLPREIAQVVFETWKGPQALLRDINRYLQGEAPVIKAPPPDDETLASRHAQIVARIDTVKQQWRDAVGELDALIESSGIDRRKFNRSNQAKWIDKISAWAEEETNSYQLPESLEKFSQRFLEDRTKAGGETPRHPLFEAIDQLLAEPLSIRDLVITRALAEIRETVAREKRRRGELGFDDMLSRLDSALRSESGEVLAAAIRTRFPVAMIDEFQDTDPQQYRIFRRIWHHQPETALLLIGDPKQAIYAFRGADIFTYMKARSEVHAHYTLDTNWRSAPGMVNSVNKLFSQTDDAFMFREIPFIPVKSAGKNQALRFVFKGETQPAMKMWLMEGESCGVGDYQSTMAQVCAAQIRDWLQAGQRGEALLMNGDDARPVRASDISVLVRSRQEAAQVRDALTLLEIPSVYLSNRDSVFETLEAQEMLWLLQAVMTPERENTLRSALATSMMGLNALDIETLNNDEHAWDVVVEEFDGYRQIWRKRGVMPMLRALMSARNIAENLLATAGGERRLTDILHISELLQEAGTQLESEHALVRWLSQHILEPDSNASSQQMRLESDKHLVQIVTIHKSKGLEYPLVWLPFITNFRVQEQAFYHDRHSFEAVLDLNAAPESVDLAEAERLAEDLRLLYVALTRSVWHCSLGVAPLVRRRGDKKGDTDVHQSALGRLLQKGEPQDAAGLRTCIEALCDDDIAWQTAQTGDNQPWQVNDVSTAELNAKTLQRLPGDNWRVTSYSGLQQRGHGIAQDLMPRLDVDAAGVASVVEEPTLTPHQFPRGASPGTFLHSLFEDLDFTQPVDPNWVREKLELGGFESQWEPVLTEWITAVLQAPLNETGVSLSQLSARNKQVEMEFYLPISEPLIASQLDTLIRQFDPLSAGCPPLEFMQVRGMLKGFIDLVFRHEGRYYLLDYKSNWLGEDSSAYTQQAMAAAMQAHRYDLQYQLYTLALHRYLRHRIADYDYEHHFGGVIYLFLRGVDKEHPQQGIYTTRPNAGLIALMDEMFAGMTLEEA

[3] = Counterscreen for AddAB inhibitors: absorbance-based bacterial cell-based high throughput dose response assay for inhibitors of bacterial viability. [Related pubchem assays (depositor defined):AID435030, AID449728, AID449731, AID488942, AID488955, AID488956]; assay type: functional

Row | Structure (SMILES) | EC50 [1] | EC50 [2] | IC50 (Exodeoxyribonuclease V) | IC50 [3]
1 | Cn1c(O)c(/C=N/NC(=O)c2cc3ccccc3cc2O)c2ccccc21 | > 160 µM (inconclusive) | 2.97 µM (active) | > 119 µM (inactive) | > 119 µM (inactive)
2 | O=C(Nc1cccc(NC(=O)c2ccccc2Cl)c1)c1ccc([N+](=O)[O-])o1 | 12.1 µM (inconclusive) | 2.84 µM (active) | > 119 µM (inactive) | > 119 µM (inactive)
